Test results taken from patent publication US10335462B2, “Use of long-acting GLP-1 peptides” (Novo Nordisk A/S, priority 2012, dated 2019).
Read-outs that look alike come from different tables or passages of the source.

Columns and labels:
[1] = system: human subjects with type 2 diabetes; settings: in vivo
From the text: (§1) The placebo composition may be identical to the composition of the GLP-1 agonists, but not containing a GLP-1 agonist.
(§2) In a 12-week, randomised, double-blind, placebo-controlled trial, 411 human subjects (n=43-50 per group) with type 2 diabetes were exposed.

[2] = system: human subjects with type 2 diabetes; assay: 12-week randomised, double-blind, placebo-controlled trial: safety and tolerability
From the text: as §1, §2

In the case of `CCCCCCCCCCCCCCCC(=O)N[C@@H](CCC(=O)NCCCC[C@H](NC(=O)[C@H](C)NC(=O)[C@H](C)NC(=O)[C@H](CCC(N)=O)NC(=O)CNC(=O)[C@H](CCC(=O)O)NC(=O)[C@H](CC(C)C)NC(=O)[C@H](Cc1ccc(O)cc1)NC(=O)[C@H](CO)NC(=O)[C@H](CO)NC(=O)[C@@H](NC(=O)[C@H](CC(=O)O)NC(=O)[C@H](CO)NC(=O)[C@@H](NC(=O)[C@H](Cc1ccccc1)NC(=O)[C@@H](NC(=O)CNC(=O)[C@H](CCC(=O)O)NC(=O)[C@H](C)NC(=O)[C@@H](N)Cc1cnc[nH]1)[C@@H](C)O)[C@@H](C)O)C(C)C)C(=O)N[C@@H](CCC(=O)O)C(=O)N[C@@H](Cc1ccccc1)C(=O)N[C@H](C(=O)N[C@@H](C)C(=O)N[C@@H](Cc1c[nH]c2ccccc12)C(=O)N[C@@H](CC(C)C)C(=O)N[C@H](C(=O)N[C@@H](CCCNC(=N)N)C(=O)NCC(=O)N[C@@H](CCCNC(=N)N)C(=O)NCC(=O)O)C(C)C)[C@@H](C)CC)C(=O)O` [liraglutide], the major hypoglycaemia [1] is reported as “no major hypoglycaemia”, the reports of pancreatitis [1] is reported as “no reports” and the “treatment-related changes in blood calcitonin” value [1] is reported as “no reports”. The “withdrawals due to gastrointestinal adverse events” value [1] was 2.2%-10.
In the case of `CC[C@H](C)[C@H](NC(=O)[C@H](Cc1ccccc1)NC(=O)[C@H](CCC(=O)O)NC(=O)[C@H](CCCCNC(=O)COCCOCCNC(=O)COCCOCCNC(=O)CC[C@H](NC(=O)CCCCCCCCCCCCCCCCC(=O)O)C(=O)O)NC(=O)[C@H](C)NC(=O)[C@H](C)NC(=O)[C@H](CCC(N)=O)NC(=O)CNC(=O)[C@H](CCC(=O)O)NC(=O)[C@H](CC(C)C)NC(=O)[C@H](Cc1ccc(O)cc1)NC(=O)[C@H](CO)NC(=O)[C@H](CO)NC(=O)[C@@H](NC(=O)[C@H](CC(=O)O)NC(=O)[C@H](CO)NC(=O)[C@@H](NC(=O)[C@H](Cc1ccccc1)NC(=O)[C@@H](NC(=O)CNC(=O)[C@H](CCC(=O)O)NC(=O)C(C)(C)NC(=O)[C@@H](N)Cc1cnc[nH]1)[C@@H](C)O)[C@@H](C)O)C(C)C)C(=O)N[C@@H](C)C(=O)N[C@@H](Cc1c[nH]c2ccccc12)C(=O)N[C@@H](CC(C)C)C(=O)N[C@H](C(=O)N[C@@H](CCCNC(=N)N)C(=O)NCC(=O)N[C@@H](CCCNC(=N)N)C(=O)NCC(=O)O)C(C)C` [semaglutide], the “proportion of subjects with nausea and vomiting” value ([2]; 12 weeks) is reported as “increased with dose, but were generally mild or moderate and ameliorated by titration”, the reports of pancreatitis ([2]; 12 weeks) is reported as “no reports” and the safety concerns ([2]; 12 weeks) is reported as “No semaglutide safety concerns were identified”. For the same compound, the “treatment-related changes in blood calcitonin” value ([2]; 12 weeks) was “no reports”, the major hypoglycaemia ([2]; all dose groups) was “no major hypoglycaemia” and the “withdrawals due to gastrointestinal adverse events” value ([2]; range over the dose groups) was 4.7%-27.7. For the same compound, the “subjects developing low titre non-neutralising anti-semaglutide antibodies (no cross-reaction to native GLP-1)” value ([2]; semaglutide 1.6 mg T) was “One subject”.
